Laboratory results taken from PMC10175918 (Communications Biology, 2023).
Where two headings read alike, the source gives them in different places.

How the values were obtained:
Assay in all cases: TGFα-shedding assay-based GPCR screening with chimeric Gα subunit proteins
Type in all cases: cell-based
348 GPCRs [1] = molecular target: T1, 348 GPCRs (Homo sapiens, UniProt Q16602); settings: 10µM, Favipiravir 100μM
T1 construct: expressed in transfected cells; host or cells: HEK293A

348 GPCRs [2] = molecular target: T2, 348 GPCRs (Homo sapiens, UniProt P47775)
T2 construct: expressed in transfected cells; host or cells: HEK293A
T2 sequence (P47775 1-334): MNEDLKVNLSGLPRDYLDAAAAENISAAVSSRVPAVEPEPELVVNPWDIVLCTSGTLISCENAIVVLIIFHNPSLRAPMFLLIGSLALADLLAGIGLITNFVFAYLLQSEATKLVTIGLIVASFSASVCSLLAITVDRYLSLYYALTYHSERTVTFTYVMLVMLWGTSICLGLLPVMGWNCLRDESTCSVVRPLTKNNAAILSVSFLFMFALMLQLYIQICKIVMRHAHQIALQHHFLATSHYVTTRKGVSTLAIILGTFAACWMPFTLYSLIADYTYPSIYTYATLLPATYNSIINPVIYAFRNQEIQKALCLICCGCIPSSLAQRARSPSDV

348 GPCRs [3] = molecular target: T3, 348 GPCRs (Homo sapiens, UniProt Q8NDV2); settings: 10µM, Favipiravir 100μM
T3 construct: expressed in transfected cells; host or cells: HEK293A

348 GPCRs [4] = molecular target: T4, 348 GPCRs (Homo sapiens, UniProt P35368)
T4 construct: expressed in transfected cells; host or cells: HEK293A
T4 sequence (P35368 1-520): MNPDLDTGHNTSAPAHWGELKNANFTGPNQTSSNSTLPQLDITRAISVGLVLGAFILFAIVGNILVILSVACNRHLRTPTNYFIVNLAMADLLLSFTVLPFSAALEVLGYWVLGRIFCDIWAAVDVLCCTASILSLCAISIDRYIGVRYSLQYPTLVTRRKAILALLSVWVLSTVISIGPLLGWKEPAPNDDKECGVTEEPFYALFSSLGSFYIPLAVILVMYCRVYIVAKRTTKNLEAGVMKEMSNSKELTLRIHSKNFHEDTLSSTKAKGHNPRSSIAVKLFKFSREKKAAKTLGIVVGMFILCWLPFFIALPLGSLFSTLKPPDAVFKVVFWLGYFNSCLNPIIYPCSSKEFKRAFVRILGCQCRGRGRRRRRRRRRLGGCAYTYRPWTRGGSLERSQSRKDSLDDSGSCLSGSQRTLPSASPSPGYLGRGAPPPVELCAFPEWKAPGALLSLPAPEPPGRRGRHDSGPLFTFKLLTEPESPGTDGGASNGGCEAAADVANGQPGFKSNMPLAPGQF

348 GPCRs [5] = molecular target: T5, 348 GPCRs (Homo sapiens, UniProt Q96P66)
T5 construct: expressed in transfected cells; host or cells: HEK293A
T5 sequence (Q96P66 1-508): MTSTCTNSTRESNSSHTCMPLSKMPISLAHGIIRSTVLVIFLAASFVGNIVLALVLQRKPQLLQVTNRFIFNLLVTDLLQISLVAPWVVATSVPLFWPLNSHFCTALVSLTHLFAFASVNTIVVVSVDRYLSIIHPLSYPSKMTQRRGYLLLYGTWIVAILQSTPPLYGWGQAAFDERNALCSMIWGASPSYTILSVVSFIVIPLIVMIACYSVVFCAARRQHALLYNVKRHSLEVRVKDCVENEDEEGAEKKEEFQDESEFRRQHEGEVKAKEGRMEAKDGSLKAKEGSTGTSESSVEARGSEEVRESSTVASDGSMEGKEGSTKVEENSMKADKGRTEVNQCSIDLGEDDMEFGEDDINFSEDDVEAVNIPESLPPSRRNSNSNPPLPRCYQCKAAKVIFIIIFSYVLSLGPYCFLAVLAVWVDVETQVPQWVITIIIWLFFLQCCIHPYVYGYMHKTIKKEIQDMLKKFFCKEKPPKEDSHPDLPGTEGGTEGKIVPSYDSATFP

348 GPCRs [6] = molecular target: T6, 348 GPCRs (Homo sapiens, UniProt P28335); settings: 10µM, Favipiravir 100μM
T6 sequence (P28335 33-458): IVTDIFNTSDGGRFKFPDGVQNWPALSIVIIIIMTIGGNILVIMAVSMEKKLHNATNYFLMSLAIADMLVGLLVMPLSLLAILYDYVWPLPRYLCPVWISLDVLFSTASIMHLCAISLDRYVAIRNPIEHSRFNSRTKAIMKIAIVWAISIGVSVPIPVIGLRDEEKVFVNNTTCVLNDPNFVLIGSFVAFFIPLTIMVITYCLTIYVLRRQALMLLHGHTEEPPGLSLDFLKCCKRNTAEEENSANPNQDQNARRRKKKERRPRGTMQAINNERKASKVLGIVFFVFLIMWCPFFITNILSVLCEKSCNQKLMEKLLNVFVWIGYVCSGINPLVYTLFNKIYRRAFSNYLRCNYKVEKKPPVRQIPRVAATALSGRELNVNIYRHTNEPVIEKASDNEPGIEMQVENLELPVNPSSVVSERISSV

348 GPCRs [7] = molecular target: T7, 348 GPCRs (Homo sapiens, UniProt O95977); settings: 10µM, Favipiravir 100μM
T7 sequence (O95977 1-384): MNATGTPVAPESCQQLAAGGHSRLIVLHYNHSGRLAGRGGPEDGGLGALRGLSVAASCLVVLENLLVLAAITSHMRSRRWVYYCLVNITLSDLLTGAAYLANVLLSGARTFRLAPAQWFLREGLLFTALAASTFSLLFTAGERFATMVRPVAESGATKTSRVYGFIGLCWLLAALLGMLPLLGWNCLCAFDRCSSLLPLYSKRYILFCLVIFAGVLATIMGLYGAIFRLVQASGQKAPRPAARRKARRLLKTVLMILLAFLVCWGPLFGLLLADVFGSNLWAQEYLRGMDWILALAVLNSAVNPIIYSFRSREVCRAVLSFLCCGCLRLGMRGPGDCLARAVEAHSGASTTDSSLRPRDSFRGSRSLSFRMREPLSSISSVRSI

348 GPCRs [8] = molecular target: T8, 348 GPCRs (Homo sapiens, UniProt Q99705)
T8 construct: expressed in transfected cells; host or cells: HEK293A

[9] = CALCRL (calcitonin receptor-like receptor), read-out: % GPCR activation compared to TPA
[10] = GPCR GPR12 (G protein-coupled receptor 12), read-out: % GPCR activation compared to TPA
[11] = GPR26 (G Protein-Coupled Receptor 26), read-out: % GPCR activation compared to TPA
[12] = GPCR α1B (adrenoceptor alpha 1B), read-out: % GPCR activation compared to TPA
[13] = GPCR GPR101 (G protein-coupled receptor 101), read-out: % GPCR activation compared to TPA
[14] = 5-HT2C (5-hydroxytryptamine receptor 2C), read-out: % GPCR activation compared to TPA
[15] = S1PR4 (sphingosine-1-phosphate receptor 4), read-out: % GPCR activation compared to TPA
[16] = GPCR MCHR1 (melanin concentrating hormone receptor 1), read-out: % GPCR activation compared to TPA
[17] = read-out: % GPCR activation compared to TPA, CALCRL (calcitonin receptor-like receptor)
[18] = read-out: % GPCR activation compared to TPA, GPCR GPR12 (G protein-coupled receptor 12)
[19] = read-out: % GPCR activation compared to TPA, GPR26 (G Protein-Coupled Receptor 26)
[20] = read-out: % GPCR activation compared to TPA, GPCR α1B (adrenoceptor alpha 1B)
[21] = read-out: % GPCR activation compared to TPA, GPCR GPR101 (G protein-coupled receptor 101)
[22] = read-out: % GPCR activation compared to TPA, 5-HT2C (5-hydroxytryptamine receptor 2C)
[23] = read-out: % GPCR activation compared to TPA, S1PR4 (sphingosine-1-phosphate receptor 4)
[24] = read-out: % GPCR activation compared to TPA, GPCR MCHR1 (melanin concentrating hormone receptor 1)

T1 sequence (Q16602 23-461): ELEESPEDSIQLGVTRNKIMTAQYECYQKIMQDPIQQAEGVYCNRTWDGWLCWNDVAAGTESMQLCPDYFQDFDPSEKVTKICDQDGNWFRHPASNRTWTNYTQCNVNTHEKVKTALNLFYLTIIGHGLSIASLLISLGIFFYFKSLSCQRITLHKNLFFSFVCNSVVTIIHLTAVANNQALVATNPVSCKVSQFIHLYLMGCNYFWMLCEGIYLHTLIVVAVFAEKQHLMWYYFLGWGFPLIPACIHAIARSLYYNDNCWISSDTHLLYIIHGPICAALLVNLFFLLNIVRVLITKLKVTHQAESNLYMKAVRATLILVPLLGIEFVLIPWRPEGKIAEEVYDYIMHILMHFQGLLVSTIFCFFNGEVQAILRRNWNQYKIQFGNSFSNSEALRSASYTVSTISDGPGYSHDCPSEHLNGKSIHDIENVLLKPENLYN
T8 sequence (Q99705 whole entry): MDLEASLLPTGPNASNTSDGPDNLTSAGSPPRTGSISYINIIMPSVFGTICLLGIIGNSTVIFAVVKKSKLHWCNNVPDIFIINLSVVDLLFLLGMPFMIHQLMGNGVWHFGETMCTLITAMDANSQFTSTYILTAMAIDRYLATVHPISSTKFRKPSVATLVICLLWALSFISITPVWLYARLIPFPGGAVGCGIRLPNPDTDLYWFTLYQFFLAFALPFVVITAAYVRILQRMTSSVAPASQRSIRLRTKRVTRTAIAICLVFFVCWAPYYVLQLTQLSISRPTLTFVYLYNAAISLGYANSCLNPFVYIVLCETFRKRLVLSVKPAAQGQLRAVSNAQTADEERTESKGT
T3 sequence (Q8NDV2 whole entry): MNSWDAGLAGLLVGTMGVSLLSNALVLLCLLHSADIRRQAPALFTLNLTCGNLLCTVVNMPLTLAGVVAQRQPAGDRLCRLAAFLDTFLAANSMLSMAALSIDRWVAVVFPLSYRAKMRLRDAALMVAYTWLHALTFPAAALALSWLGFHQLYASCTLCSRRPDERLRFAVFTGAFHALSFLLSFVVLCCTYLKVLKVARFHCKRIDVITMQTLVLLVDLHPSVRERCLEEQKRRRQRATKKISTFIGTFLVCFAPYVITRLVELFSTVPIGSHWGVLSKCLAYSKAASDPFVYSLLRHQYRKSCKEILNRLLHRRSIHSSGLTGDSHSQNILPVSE

Compound | activation at 100 µM (348 GPCRs [1]; [9]) | activation at 10 µM (348 GPCRs [2]; [10]) | activation at 100 µM (348 GPCRs [3]; [11]) | activation at 10 µM (348 GPCRs [4]; [12]) | activation at 10 µM (348 GPCRs [5]; [13]) | activation at 100 µM (348 GPCRs [6]; [14]) | activation at 10 µM (348 GPCRs [7]; [15]) | activation at 10 µM (348 GPCRs [8]; [16]) | activation at 100 µM (348 GPCRs [2]; GPCR GPR12 (G protein-coupled receptor 12), 100μM, read-out: % GPCR activation compared to TPA) | activation at 100 µM (348 GPCRs [4]; GPCR α1B (adrenoceptor alpha 1B), 100μM, read-out: % GPCR activation compared to TPA) | activation at 100 µM (348 GPCRs [5]; GPCR GPR101 (G protein-coupled receptor 101), 100μM, read-out: % GPCR activation compared to TPA) | activation at 100 µM (348 GPCRs [8]; GPCR MCHR1 (melanin concentrating hormone receptor 1), 100μM, read-out: % GPCR activation compared to TPA) | activation at 100 µM (348 GPCRs [1]; [17]) | activation at 10 µM (348 GPCRs [2]; [18]) | activation at 100 µM (348 GPCRs [3]; [19]) | activation at 10 µM (348 GPCRs [4]; [20]) | activation at 10 µM (348 GPCRs [5]; [21]) | activation at 100 µM (348 GPCRs [6]; [22]) | activation at 10 µM (348 GPCRs [7]; [23]) | activation at 10 µM (348 GPCRs [8]; [24])
CCC(CC)COC(=O)[C@H](C)N[P@](=O)(OC[C@H]1O[C@@](C#N)(c2ccc3c(N)ncnn23)[C@H](O)[C@@H]1O)Oc1ccccc1 [remdesivir] | – | – | – | – | – | – | – | – | – | – | – | – | 4.11% | 5.35% | 0.188% | -0.0202% | 1.7% | -0.0017% | -2.69% | -1.97%
CC(C)OC(=O)[C@H](C)N[P@](=O)(OC[C@H]1O[C@@H](n2ccc(=O)[nH]c2=O)[C@](C)(F)[C@@H]1O)Oc1ccccc1 [sofosbuvir] | – | – | – | – | – | – | – | – | – | – | – | – | -3.04% | -0.471% | 0.171% | 0.342% | -3.4% | -0.973% | -2.24% | -4.22%

Now from value to compound, other results behind:

activation at 100 µM (348 GPCRs [1]; [9]) | activation at 10 µM (348 GPCRs [2]; [10]) | activation at 100 µM (348 GPCRs [3]; [11]) | activation at 10 µM (348 GPCRs [4]; [12]) | activation at 10 µM (348 GPCRs [5]; [13]) | activation at 100 µM (348 GPCRs [6]; [14]) | activation at 10 µM (348 GPCRs [7]; [15]) | activation at 10 µM (348 GPCRs [8]; [16]) | activation at 100 µM (348 GPCRs [2]; GPCR GPR12 (G protein-coupled receptor 12), 100μM, read-out: % GPCR activation compared to TPA) | activation at 100 µM (348 GPCRs [4]; GPCR α1B (adrenoceptor alpha 1B), 100μM, read-out: % GPCR activation compared to TPA) | activation at 100 µM (348 GPCRs [5]; GPCR GPR101 (G protein-coupled receptor 101), 100μM, read-out: % GPCR activation compared to TPA) | activation at 100 µM (348 GPCRs [8]; GPCR MCHR1 (melanin concentrating hormone receptor 1), 100μM, read-out: % GPCR activation compared to TPA) | Compound | activation at 100 µM (348 GPCRs [1]; [17]) | activation at 10 µM (348 GPCRs [2]; [18]) | activation at 100 µM (348 GPCRs [3]; [19]) | activation at 10 µM (348 GPCRs [4]; [20]) | activation at 10 µM (348 GPCRs [5]; [21]) | activation at 100 µM (348 GPCRs [6]; [22]) | activation at 10 µM (348 GPCRs [7]; [23]) | activation at 10 µM (348 GPCRs [8]; [24])
0.376% | 4.27% | -0.116% | -1.17% | -0.779% | 0.017% | -3.24% | -1.77% | – | – | – | – | N#C[C@@]1(c2ccc3c(N)ncnn23)O[C@H](CO)[C@@H](O)[C@H]1O [GS441524] | – | – | – | – | – | – | – | –
-7.08% | – | -0.29% | – | – | 3.15% | -3.38% | – | 3.7% | -1.61% | -0.717% | -2.9% | NC(=O)c1nc(F)cnc1O [favipiravir, 6-fluoro-3-hydroxy-2-pyrazinecarboxamide] | – | – | – | – | – | – | – | –
-2.18% | 0.357% | -0.581% | 0.493% | -0.865% | -2.97% | -2.08% | -2.69% | – | – | – | – | CC(C)C(=O)OC[C@H]1O[C@@H](n2ccc(NO)nc2=O)[C@H](O)[C@@H]1O [molnupiravir] | – | – | – | – | – | – | – | –
